According to article PMC11061149, “Protein mimetic 2D FAST rescues alpha synuclein aggregation mediated early and post disease Parkinson’s phenotypes” (Nature Communications, 2024):
“And” between values parts separate entries of the source, which are not always exact repeats. Equal entries are not always repeated.

What was measured:
[1] = target: T1, αS aggregation (Homo sapiens, UniProt P37840); assay: SDS-PAGE gel shift assay of soluble and insoluble αS fractions; type: biochemical; conditions: for Total (αS, SDS-PAGE gel shift), Average: average of 3 trials
T1 construct: made in house; host or cells: E. coli BL21(DE3)
From the text: The inhibition of αS aggregation by NS41 was also confirmed by TEM images, which show an abundance (Supplementary Fig. 3a) and low amount (Supplementary Fig. 3b) of αS fibers in the absence and presence of NS41, respectively. We used SDS-PAGE (Sodium dodecyl sulfate polyacrylamide gel electrophoresis) as a complementary assay to validate ThT results and to further characterize the antagonist activity of the monopyridyls against αS aggregation. We used a total of four monopyridyls with varying antagonist activity against αS aggregation for the SDS-PAGE assay. The solutions of αS (±monopyridyls) were centrifuged and the soluble and insoluble fractions were subjected to SDS-PAGE analysis as reported earlier (Fig. 2d, Supplementary Fig. 4a, see details in methods section). The band intensities of the gels in SDS-PAGE assay were quantified using ImageJ software. In the absence of ligands, ~12% of αS was found in the soluble fraction and the rest was found in the insoluble fraction (Fig. 2d, Supplementary Fig. 4a, b). In the presence of NS41 at molar ratios of 1:1 and 2:1 (NS41:αS), 48% and 73% of αS protein were found in the soluble fraction, respectively, and the rest of αS protein was found in the insoluble fraction (Fig. 2d, Supplementary Fig. 4a, b). […] The antagonist activity of the monopyridyls corroborated well from both ThT and the SDS-PAGE assays (Fig. 2a–d, Supplementary Fig. 4a, b). The higher the antagonist activity of monopyridyls against αS aggregation, the lower the ThT intensity and the higher the amount of αS remained in the soluble fraction (Fig. 2a–d, Supplementary Fig. 4a, b). […] It is important to note that NS41 contains a carboxyl (COOH) functional group side chain. […] We have also shown in that work that the foldamer binds to the N-terminus of αS because of its negatively charged COOH functional group interaction with the positively charged lysine residues of αS[24]. […] Additionally, we have also shown that the OPs with the COOH functional group are very effective inhibitors of aggregation of other amyloid proteins that contain lysine amino acid via the formation of salt bridges[30]–[34].
An αS solution (100 µM) was prepared in PBS with or without ligands and shaken ([…], 37 °C) until the fluorescence plateaued, as observed using the ThT aggregation assay, indicative of the aggregation of αS as a control (four days for most experiments unless otherwise mentioned). The solutions were separated into soluble and insoluble fractions by centrifugation at 22,000 × g for 20 min. The fractions were diluted in 2×Laemmli protein sample loading buffer (Containing 2.1% SDS, Bio-rad, Hercules, CA), boiled at 95 °C for 5 min, and ran on a 12% Mini-PROTEAN precast protein gel (Bio-rad, Hercules, CA). The gel was visualized using ChemiDoc MP Imaging System (Bio-rad, Hercules, CA) and band intensity was quantified using Image Lab image acquisition and analysis software (Bio-rad, Hercules, CA). Densitometry values were averaged from three technical replicates and reported with the error bars representing their standard deviations.

[2] = system: HEK293 cells stably expressing αS-A53T-YFP; assay: ProteoStat dye assay, ligand pre-treatment, αS fibers templated intracellular aggregation; type: cell-based, human; conditions: ligand 10 µM for 16 h, washed, then 5 µM αS fibers for 24 h
Protocol: We further tested NS163 against intracellular αS aggregation using same HEK293 cells (express αS-A53T-YFP)[23],[24],[50]. In this assay, we added NS163 (10 µM) to the HEK cells and incubated the cells for 16 h, washed the cells and treated with the preformed fibers of αS (5 µM monomer) and incubated for an additional 24 h. The ProteoStat dye-based intensity of HEK cells treated with αS fibers was ~4 fold higher than the control (no fibers) (Supplementary Fig. 19). NS163 was a very potent antagonist as it was able to reduce the intracellular inclusions by 80% at 10 µM, measured using the ProteoStat dye-based assay (Supplementary Fig. 19). Under matched conditions, 10 µM NS132 was able to reduce the intracellular inclusions by 57% (Supplementary Fig. 19). The higher antagonist activity of NS163 than NS132 is likely due to the better cell permeability of the former. […] It is important to point out that our potent ligands (NS163 and NS132) were able to inhibit αS preformed fibers templated aggregation of both monomeric WT αS and A53T αS mutant. It has been shown that the WT αS fibers templated aggregation of WT αS and its mutants is predominantly dependent on the interaction of the fibers with the N-terminus of the monomeric WT αS and its mutants[62],[68],[69]. […]

Cc1ccc(NC(=O)c2ccc(NC(=O)c3ccc([N+](=O)[O-])c(NCCc4c[nH]c5ccccc45)n3)c(NCC3CCCCC3)n2)c(OCC(=O)O)n1 [NS132]
amount of αS in the insoluble fraction ([1]; 100 µM αS, four days, equimolar): 14% and 11%
Total (αS, SDS-PAGE gel shift), Average ([1]; NS132 0.2 eq.): 1.493
Total (αS, SDS-PAGE gel shift), Trial 1-3 ([1]; NS132 0.2 eq., individual trials, Synuclein alone total ~1): 1.48 and 1.6 and 1.4
Total (αS, SDS-PAGE gel shift), Average ([1]; NS132 1.0 eq.): 1.161
Total (αS, SDS-PAGE gel shift), Trial 1-3 ([1]; NS132 1.0 eq., individual trials): 1.099 and 1.145 and 1.24
αS band intensity, Total, Average ([1]; sheet S7B): 99.9667
αS band intensity, Total ([1]; sheet S7B, individual trials): 92.4 and 101.3 and 106.2
distribution of αS between soluble and insoluble fraction, in words ([1]; substoichiometric ratio αS:ligand 1:0.5): predominantly detected in the soluble fraction
reduction of intracellular inclusions (ProteoStat) [2]: 57%
